Measurements from PMC12040169 (PLOS Biology, 2025).

Assay: in vitro
Conditions: human, hela cells, % viability

Structure (SMILES)	viability at 28.5 h, 10 µM [%]
C#CCNC(=O)CC[C@H]1CNC(=O)[C@@H]2[C@@H](CCN2Cc2ccccc2)N1C [CBK289034]	101
COc1ccc(Cn2nc3nnc(-c4ccccc4)c(-c4ccccc4)n3c2=O)cc1 [CBK286180]	88.8
Clc1ccc(CN2CCc3ccccc3C2)cc1Cl [CBK126395]	103
O=C(C1CC2C=CC1C21CC1)N1CCN(Cc2ccccn2)CC1 (centres unmarked) [CBK281443]	86.3
O=C(O)c1cccc(CSc2nnc(Cc3ccccc3)o2)c1 [CBK268060]	92
COC(=O)CCC(=O)N1CCC(Cn2cncn2)(C2CCCCC2)CC1 [CBK136810]	90.8
CC(Oc1ccc(Cl)cc1)C(=O)Nc1ncccn1 (centres unmarked) [CBK288206]	96.5
CC(=O)Nc1nonc1OCCOc1nonc1NC(C)=O [CBK020227]	113
O=C(CCc1ccccc1)N/N=C/c1cc2c(cc1[N+](=O)[O-])OCO2 [CBK261221]	111
COc1ccccc1N1CCN(C2CCN(Cc3ccc([N+](=O)[O-])cc3)CC2)CC1 [CBK264734G]	98.8
COc1ccc(C(=O)NCCCN(C)C)cc1Nc1cncc(-c2ccc(O)cc2)n1 [CBK126938T]	95
O=C(CN1CCOCC1)N1CCC(F)CC1 [CBK200383]	83.5
Cn1nc(C(=O)NCCSc2n[nH]c(=O)[nH]c2=O)c2ccccc2c1=O [CBK297501]	79.1
O[C@@H]1C[C@@H](c2nc(-c3ccncc3)no2)N(Cc2ccc(F)cc2)C1 [CBK288838]	94.3
CN1CCC[C@H]1C(=O)Nc1ccc2ncccc2c1 [CBK159825]	95.7
COc1cc(S(=O)(=O)Nc2ccc(CC(=O)O)cc2)ccc1Cl [CBK287019]	107
Cc1ccc(-c2c(N3C(=O)c4cccnc4C3=O)n[nH]c2C)cc1 [CBK288199]	101
C/C(=N\NC(=O)C(C)Sc1ncccn1)C(C)(C)C (centres unmarked) [CBK020243]	104
c1ccc([C@@H]2CN(Cc3ccccn3)C[C@H]2c2cc[nH]n2)cc1 [CBK285162]	105
C#CCn1ncc2c3sc(C)cc3n(CC)c2c1=O [CBK284225]	89.5
CCN1C(=O)CC2(C1=O)C(=O)N(CCc1cccs1)c1ccc(Cl)cc12 (centres unmarked) [CBK075614]	106
CCNC(=O)Nc1cc2cccnc2nc1-c1ccc(S(C)(=O)=O)cc1 [CBK070706]	93.3
Cc1ccc(C2(CN3CCN(Cc4ncc[nH]4)CC3)CC2)cc1 [CBK283306]	95.9

Structure (SMILES)	viability at 28.5 h, 10 µM [%]
Cc1cc(OCC(O)CN2CCN(CCO)CC2)ccc1C(C)C (centres unmarked) [CBK278254C]	89
CON=Cc1c[nH]c2ccccc12 [CBK168628]	93.7
CCOC(=O)c1cccnc1-c1cccc(C(N)=O)c1 [CBK149239]	96
C[n+]1cn(/N=C/c2ccco2)cn1 [CBK028562I]	104
O=C(COc1ccccc1)N1CCN(Cc2ccccn2)CC1 [CBK073265G]	86.1
Cc1csc(NC(=O)c2cc(S(=O)(=O)N3CCCC3)cn2C)n1 [CBK295617]	87.8
O=S(=O)(Nc1nccnc1Cl)c1ccccc1Cl [CBK149698]	84.3
CCC(c1ccc2c(c1)CCO2)N1CCN(Cc2nc(C)no2)CC1 (centres unmarked) [CBK304237]	90.3
O=C(CN1C(=O)/C(=C/c2ccccc2)SC1=S)Nc1cccc(C(=O)O)c1 [CBK262171]	86.9
CN(Cc1ccccc1)c1ncc(-c2ccc(N3CCOCC3)cc2)n2ccnc12 [CBK091275]	99.7
Nc1nc(OCc2ccc3c(c2)OCO3)cnc1/C=C/c1ccccc1 [CBK145123]	92.7
O=C(NCCc1ccc(Cl)cc1)C1CCN(C(=O)CCc2ccccc2F)C1 (centres unmarked) [CBK285931]	84.1
Cc1nnnn1-c1cc(NC(=O)NCCc2ccnn2C)ccc1F [CBK306428]	87.8
CC(=O)N1CCC2(C/C=C/C[C@H]3CN(C(=O)CC4CCOCC4)CC[C@H]3NC(=O)CNC2=O)CC1 [CBK292109]	98.8
Cc1c(O)cccc1Nc1cc(-c2cccc(N(C)C)c2)ncn1 [CBK036995]	94.3
NCCCOc1nc2ccccc2nc1N1CCCC1 [CBK115287]	95.8
CN(C)CCN(C)C(=O)Cc1csc(-c2cccc(Cl)c2)n1 [CBK282176]	111
CC(=O)Nc1ccc(CCC2(NC(=O)C3CC3)CCCCC2)cn1 [CBK282290]	87.4
COc1ccc(NS(=O)(=O)c2ccc(NC(=S)NC(=O)C(C)(C)C)cc2)cc1 [CBK268990]	109
Cc1ccc2[nH]c(C)c(CC(=O)N(C)CCN3CCCCC3)c2c1 [CBK282749]	87.8
O=C(Nc1cccnc1)c1ccc(CN2CCC(Cc3ccccc3)CC2)cc1 [CBK264095]	94.9
O=C(c1cc2ccccc2[nH]1)N1CCN(Cc2ccccc2)CC1 [CBK200172]	118
Cc1ccc(CN2Cc3cc4ccccc4nc3OC(C)C2=O)o1 (centres unmarked) [CBK284004]	90.6

Structure (SMILES)	viability at 28.5 h, 10 µM [%]
O=S1(=O)C=C(SCCN2CCCCC2)c2ccccc21 [CBK265328]	92.6
Cc1cc(=O)nc(SC(C)C(=O)O)[nH]1 (centres unmarked) [CBK264630]	95.3
O=C(N[C@H]1CCN2C(=O)c3cc(Br)ccc3NC(=O)[C@H]12)c1cccc(F)c1 [CBK289334]	82.3
O=C(C1CC=CCC1)N1CCC(c2[nH]ncc2-c2ccncc2)CC1 (centres unmarked) [CBK284212]	84
FC(F)(F)c1cccnc1OCc1cccnc1 [CBK115780]	101
O=C(NCCCCNC(=O)c1scc(-c2ccccc2)c1C(=O)O)c1scc(-c2ccccc2)c1C(=O)O [CBK296086]	107
COc1ccc(CSc2nnc(-c3ccco3)n2N)cc1 [CBK267548]	90.3
O=C(Cc1c[nH]c2ccccc12)N1CCC2(CCCN(C(=O)c3ccc(OC(F)(F)F)cc3)C2)C1 (centres unmarked) [CBK131579]	97.8
Cc1noc(C)c1NC(=O)Cc1cccnc1 [CBK200391]	96.6
O=C(CN1CCC2(CC1)CN(C(=O)CO)c1ccccc12)c1ccsc1 [CBK144605T]	86.8
Nc1ncc(-c2ccco2)nc1-c1ccc(C(=O)NCCO)cc1 [CBK064124]	91.1
COCOc1ccc(-c2nccnc2OCCc2cccs2)cc1 [CBK106911]	106
O=C(O)C1Nc2ccc(Br)cc2C2C=CCC12 (centres unmarked) [CBK026482]	92.1
O=C(O)c1sccc1S(=O)(=O)NCc1ccc(COCC(F)(F)F)cc1 [CBK296706]	110
CCN1CCN(Cc2c(O)ccc3c(=O)c(-c4ccccc4OC)c(C(F)(F)F)oc23)CC1 [CBK263692]	87.6
Cc1cc2ncc3c(n2n1)CC1CCC3N1C(=O)c1ccco1 (centres unmarked) [CBK284379]	78.1
Cc1ccc(-c2cc(=O)c3cc(OCC(=O)Nc4sc5c(c4C#N)CCCC5)ccc3o2)cc1 [CBK269062]	96.6
CC(=O)Nc1ccc(-c2ccc(COC3CCN(C(=O)OC(C)(C)C)CC3)cc2)cc1 [CBK138215]	99.8
COC(=O)c1ccc(Cn2cc(NC(=O)NCCc3cccs3)cn2)o1 [CBK043825]	82.4
O=c1[nH]c(/C=C\c2cccc(OCCOc3ccccc3)c2)c([N+](=O)[O-])c(=O)[nH]1 [CBK266840]	105
COCCNc1nc2c(c(N3CCCC(CO)C3)n1)CCNCC2 (centres unmarked) [CBK307242]	111
COc1ccc(OCCCN2C(=O)C3(CC(=O)N(Cc4ccccc4)C3=O)c3cc(OC)ccc32)cc1 (centres unmarked) [CBK075523]	106
CCC(=O)Nc1nc2ccccc2n1CCN1CCOCC1 [CBK261477]	101

Structure (SMILES)	viability at 28.5 h, 10 µM [%]
O=C(CN1CCN(CCCc2c[nH]c3ccc(F)cc23)CC1)N(c1ccccc1)C1CCCCC1 [CBK074710]	92.1
O=[N+]([O-])c1cc(S(=O)(=O)Nc2ccccc2)ccc1N1CCN2CCCC2C1 (centres unmarked) [CBK001248]	87.7
C=C(C)CN1CCN(C(=O)C(CC)Oc2ccccc2F)CC1 (centres unmarked) [CBK282935]	90.1
O=C(Oc1cccc(-c2cnc3ccccc3n2)c1)c1cccc(S(=O)(=O)N2CCOCC2)c1 [CBK262096]	89.3
Cc1ccc(N(Cc2ccccc2OC(=O)c2cccnc2)C2=NS(=O)(=O)c3ccccc32)cc1 [CBK265760]	88.4
COCc1cc(C)nc(OCC(=O)N2CCCCC2)c1C#N [CBK270228]	104
CCN(CC)CCn1c(OC)cc(=O)[nH]c1=O [CBK264411]	97.5
Cc1cc(C)n2nc(CC(=O)N3CCCC3c3ccccn3)nc2n1 (centres unmarked) [CBK304408]	90.8
Cc1cccc(-c2nnc(-c3ccc(NC(=O)CSCc4ccccc4)cc3)o2)c1 [CBK266775]	109
O=C(c1ccco1)N1CCN(C(=S)Nc2ccc(S(=O)(=O)Nc3ncccn3)cc2)CC1 [CBK267096]	104
CC(C)(C)c1ccc(-c2nc3ncccc3cc2O)cc1 [CBK073703]	74.5
CCn1c(C)cc(C(=O)NC2CCN(c3ncccc3C#N)CC2)c1C [CBK306524]	87.8
Cc1cc(CNC(=O)C2CC(=O)N(Cc3ccccn3)C2)ccc1F (centres unmarked) [CBK305557]	77.3
Cc1nnnn1-c1cc(NC(=O)NCCN2CCOCC2)ccc1F [CBK306246]	89.2
COc1ccc(C)cc1N(CC(=O)Nc1ccc(F)c(F)c1)S(C)(=O)=O [CBK267006]	96.5
COc1ccc(C(C)NC(=O)c2cc(-c3ccc(F)cc3)[nH]n2)cc1 (centres unmarked) [CBK288060]	87
O=C(O)c1ccc2c(c1)C(=O)N(c1ccc(/C=C/C(=O)c3ccccc3)cc1)C2=O [CBK261181]	79.6
O=C(Cc1c[nH]c2ccccc12)N1CCCC1c1ccc(F)cc1 (centres unmarked) [CBK297927]	105
CC(NC(=O)Cc1cccc(F)c1)c1nnc2n1CCCCC2 (centres unmarked) [CBK305975]	85.8
Clc1ccc(-c2c[nH]cn2)cc1 [CBK027542]	111
